Data from patent US11452775B2, “Detection of arginine methylation of EGFR for prediction of resistance to therapy” (Board of Regents, The University of Texas System, priority 2013, dated 2022).

Key:
SKCO1 cells = assay: Anchorage-independent growth (soft agar) assay for colony formation with or without gefitinib; assay type: cell-based; details: PRMT1-overexpressing and vector control cells
Text: (§1) FIGS. 1A-F. PRMT1-mediated cell proliferation and colony formation are EGFR signaling dependent. FIG. 1A. Cell proliferation assay of SKCO1 (left) and GEO (right) cells exogenously expressing PRMT1, PRMT1 shRNA, and control vector. In the top graphs, the top lines represent PRMT1 and the bottom lines represent Vector. In the bottom graphs, the top lines represent Vector and the bottom lines represent PRMT1 shRNA. P<0.05, t-test. FIG. 1B. Soft agar assay of SKCO1 cells exogenously expressing PRMT1, PRMT1 shRNA and control vector. Representative images from the anchorage-independent growth assay are shown above. *P<0.05, **P<0.005, t-test. FIG. 1C. Cell proliferation assay of SKCO1 (top) and GEO (bottom) cells expressing PRMT1 or vector control with or without gefitinib treatment. In both graphs, the top solid lines represent PRMT1 and the bottom solid lines represent Vector. In the top graph, the top dashed line represents PRMT1+gefitinib and the bottom dashed line represents Vector+gefitinib. P<0.05, t-test. FIG. 1D. […] All quantitative data were generated from a minimum of three replicates. Data are expressed as mean±s.d.
The base layer of cell growth matrix containing DMEM/F12 medium, 10% FBS, and 0.5% agar was paved in 6-well plates (1.5 ml per well). […] Colonies with a diameter larger than 0.5 mm were counted.

SKCO1 and GEO cells = assay: Cell proliferation assay with or without gefitinib; assay type: cell-based; details: PRMT1-overexpressing and vector control cells
Text: as §1, with “1D. Soft agar assay of SKCO1 exogenously expressing PRMT1 and control vector with or without gefitinib treatment. **P<0.005, t-test. FIG. 1E.” for “1D.”
Cells were then trypsinized and cell numbers counted on a daily basis.

In the case of `COc1cc2ncnc(Nc3ccc(F)c(Cl)c3)c2cc1OCCCN1CCOCC1` [gefitinib], the colony formation (SKCO1 cells) is reported as “significantly inhibited” and the cell proliferation (SKCO1 and GEO cells) is reported as “significantly inhibited”.
